Data taken from patent US6486162B2, “2-{3-[4-(2-t-butyl-6-trifluoromethyl-4-pyrimidinyl)-1- piperazinyl] propylthio}-4-pyrimidinol fumarate” (Abbott Laboratories, priority 1997, dated 2002).
Values belong to the compound of their own block, whether it stands above or below them.

Columns and labels:
Format in all cases: physicochemical
[1] = solubility tests of the substances
From the text: It has a selectivity, Ki D2/Ki D3of 120 (cf. WO 96/02519). The compound is therefore useful for treating disorders which respond to dopamine D3ligands, eg. for treating disorders of the central nervous system, in particular schizophrenia, depressions, neuroses and psychoses. It is additionally useful for treating sleep disturbances and nausea and as antihistamine.
(§1) Furthermore, the fumarate is more soluble in polar solvents such as C1-C6-alkanols than the free base. Because of the altered solubility characteristics, it can also be purified more simply while avoiding physiologically unacceptable solvents.

[2] = stability against oxidative processes; details: compared to the free base
From the text: as §1

[3] = evaluation of various acid addition salts
From the text: Evaluation of various acid addition salts of 2-{3-[4-(2-t-butyl-6-trifluoromethyl-4-pyrimidyl)-1-piperazinyl)propylthio}-4-5 pyrimidinol

solubility in water ([1]; compared to that of the free base): substantially higher solubility | solubility in polar solvents such as C1-C6-alkanols ([1]; compared to the free base): more soluble | stability against oxidative processes [2]: higher stability | Observation: hygroscopicity [3]: non-hygroscopic salt with definite
Compound: CC(C)(C)c1nc(N2CCN(CCCSc3nccc(O)n3)CC2)cc(C(F)(F)F)n1.O=C(O)/C=C/C(=O)O [Fumarate, fumaric acid salt of 2-{3-[4-(2-t-butyl-6-trifluoromethyl-4-pyrimidinyl)-1-piperazinyl]propylthio}-4-pyrimidinol]

Compound: Methane sulfonate
Observation: crystals are deliquescent and dissolve within [3]: deliquescent and dissolve within 3 h

Compound: Hydrochloride
Observation: stability of the compound in the acidic medium ([3]; aqueous solution of the salt is highly acidic): acidic; the compound is instable in
